Source: patent publication US5041438A, “Method for treating retroviral infections with benzodiazepine compounds” (Hoffmann-La Roche Inc., priority 1989, dated 1991)
“Also recorded” adds a separate entry of the source. Read-outs that look alike come from different tables or passages of the source.

How the values were obtained:
TAT = experiment: anti-TAT assay: SeAP reporter expression under HIV-LTR in COS cells co-transfected with TAT; format: cell-based; details: 1, 10 and 100 μM, added 24 h post transfection, assayed 48 h later, FIG. 1
Description: (§1) FIG. 1 Illustrates anti-TAT activity of Compound I. COS cells are co-transfected with TAT and Secreted Alkaline Phosphatase (SeAP) genes. The SeAP gene, under the control of the HIV-LTR (responsive to TAT activation) or the RSV-LTR (unresponsive to TAT action) serves as a monitor or reporter gene. SeAP activity in the HIV-LTR combination but not the RSV-LTR combination serves as a measure of TAT activity. Cells containing the RSV-LTR co-transfected gene combination serve as an indicator of the non-specific toxicity of added test compounds. The black bars represent the percent inhibition of SeAP activity by Compound I when the SeAP gene is under the control of HIV-LTR. The hatched bars represent the effect of Compound I on SeAP activity when the SeAP gene is regulated by RSV-LTR. […] The figure includes results from three separate assays.
(§2) Compound I was tested for anti-TAT activity in an anti-TAT assay described in copending patent application, now U.S. Ser. No. 07/428,555 filed Oct. 10, 1989, filed on the same day as the instant application and hereby incorporated by reference. […] The anti-TAT activity is measured by the percent inhibition of SeAP gene expression under the control of HIV-LTR.

HIV/HTLV III, RF strain = experiment: p24 viral antigen capture assay (ELISA) in C8166 CD4+ T-cells; format: cell-based; details: for anti-viral activity in p24 viral antigen capture assay: result in words
Protocol: Compound I was tested for anti-viral activity in the p24 viral antigen capture assay.
The Enzyme Linked Immuno-absorbant Assay (ELISA) was used to test Compound I for anti-HIV activity by measuring virus replication in CD4^+ T-lymphocytes by detecting viral p24 antigen released into the tissue culture supernatant of infected cells.
High titer virus stocks [HIV/HTLV III, RF strain]were grown in H9 cells in RPMI-1640 (Flow Laboratories) supplemented with 10% fetal calf serum, penicillin (100 IU/ml) and streptomycin (100 μg/ml). Cell debris was removed by low speed centrifugation and the supernatant stored at -70° C. until required. The host cell line used in the anti-viral assays was the C8166 CD4^+ T-cell line which is particularly susceptible to infection with HIV. Cells were incubated with 10 TCID50, HIV/HTLV III (RF) at 37° C. for 90 minutes and then washed three times with PBS. Cell aliquots (2×10^5) were resuspended in 1.5 ml growth medium in 6 ml tubes and appropriate amounts of Compound I added and incubated at 37° C. At 72 hours post-infection, the supernatants from the cell cultures were assayed for p24 antigen. The antigen capture ELISA used was purchased from Coulter (Luton, UK). The assays were carried out on supernatants taken from infected cell cultures using the procedure described by the manufacturer. In each assay a positive control was included, together with a supernatant control taken from uninfected cells. The plates were read using the appropriate spectrophotometric detection system. Results of two separate assays are:
ID50 is defined as the dose of compound required to inhibit viral replication by 50 percent. […] Approximately 0.1 μM and 6 μM of Compound I yields 50 percent inhibition of viral replication. 0.003 μM AZT provided 50 percent inhibition of viral replication in one test conducted. ddC provided 50 percent inhibition at a concentration of 0.01 μM in one test.

HIV-1 NIT strain = experiment: inhibition of HIV-cytopathic effect and of viral RNA and antigen production in infected CD4+ CEM cells; format: cell-based; details: MOI=1, 3 and 6 days, FIGS. 2 and 3
Protocol: High titer virus stocks (HIV-1 NIT strain) were grown in CD4^+ CR1O cells in RMPI-1640 media (Gibco Laboratories) supplemented with 10% fetal calf serum and 0.1 mg/ml Gentamicin. The collected media were filtered through a 0.8 Micron filter and virus isolates were concentrated 100 fold and stored at -80° C.
CD4^+ CEM cells, propagated in the same medium, were incubated for 60 minutes at 37° C. with diluted stock virus at MOI=1. Cells were washed three times with phosphate buffered saline and resuspended in the medium at 2×10^5 cells/ml. Various quantities of Compound I were added. Three days after infection, numbers of live cells were counted by trypan blue exclusion [Mitsuya, et al. Proc. Natl. Acad. Sci. 83:1911 (1986)]. […] Cells stained with the fluorescent antibody were counted using a fluorescence microscope and the results were expressed as percentage of the total number of cells counted [(Hedenskog et al., J. Med. Virol. 1:9325 (1986)].
The viral RNA in infected cells was quantitized with an RNA-RNA hybridization/reversible target capture procedure [Gillespie et al. Molecular and Cellular Probes, 2:73 (1989)]. […] 2×10^5 live cells, determined by trypan blue exclusion, were used in each assay.
For cytotoxicity testing, uninfected CEM cells were treated with Compound I at similar concentrations and toxicity of the compound was measured by the live-cell count. […]

COS cells = experiment: parallel cytotoxicity assay: SeAP expression under RSV-LTR in COS cells; format: cell-based; details: RSV-LTR not responsive to TAT, FIG. 1
Description: as §1, §2

HIV = details: in most patients; cited from earlier work

Row | SMILES | anti-TAT activity (inhibition of SeAP gene expression under control of HIV-LTR) (TAT) | IC50 (HIV/HTLV III, RF strain; Human immunodeficiency virus 1, C8166, 72 h, read-out: ID50 (dose of compound required to inhibit viral replication by 50 percent), p24 antigen, C8166 cells, 72 h post-infection, first of two separate assays) | IC50 (HIV/HTLV III, RF strain; Human immunodeficiency virus 1, C8166, 72 h, read-out: ID50 (dose of compound required to inhibit viral replication by 50 percent), p24 antigen, C8166 cells, 72 h post-infection, second of two separate assays) | anti-viral activity in p24 viral antigen capture assay (HIV/HTLV III, RF strain) | anti-HIV activity (HIV-cytopathic effect, viral RNA and antigen production) (HIV-1 NIT strain) | nonspecific cytotoxicity (SeAP gene expression under control of RSV-LTR) (COS cells) | IC50 (HIV/HTLV III, RF strain; Human immunodeficiency virus 1, p24 antigen, C8166 cells, 72 h post-infection, second of two separate assays, read-out: ID50 (dose of compound required to inhibit viral replication by 50 percent)) | virustatic range (body weight dose) (HIV) | IC50 (HIV/HTLV III, RF strain; Human immunodeficiency virus 1, p24 antigen, C8166 cells, 72 h post-infection, first of two separate assays, read-out: ID50 (dose of compound required to inhibit viral replication by 50 percent))
1 | O=C1CN=C(c2ccc[nH]2)c2cc(Cl)ccc2N1 [Compound I, 7-chloro-5-(2-pyrryl)-3H-1,4-benzodiazepin-2(1H)-one] | specifically inhibits TAT action; also recorded: exhibits anti-TAT activity; also recorded: specific inhibitor of TAT | 100 nM | 6000 nM | positive results; also recorded: exhibits anti-viral activity | inhibition of HIV-cytopathic effect and viral RNA and antigen production | does not exhibit nonspecific toxicity; also recorded: does not exhibit nonspecific cytotoxicity |  |  | 
2 | Nc1ccn([C@H]2CC[C@@H](CO)O2)c(=O)n1 [ddC] |  |  |  | active in the p24 assay |  |  | 10 nM | 0.005-0.25 mg/kg body weight | 
3 | Cc1cn([C@H]2C[C@H](N=[N+]=[N-])[C@@H](CO)O2)c(=O)[nH]c1=O [AZT] |  |  |  | active in the p24 assay; also recorded: exhibits anti-viral activity |  |  |  |  | 3 nM
